Inhibition data for 12 compounds are collected here from ChEMBL document CHEMBL5442219.

Conditions in all cases: Compound concentration 10 µM
The target in test [1] is Beta-2 adrenergic receptor (Homo sapiens) (UniProt P07550).
Description: PDSP Primary Binding target: ADRB2 - Compounds are tested at 10 uM concentration, plate are incubated at room temperature in the dark for 90 minutes. Reaction are stopped by vacuum filtration onto 0.3% polyethyleneimine soaked filter mats using Filtermate harvester. Scintilation cocktail is then melted onto microwave-dried filters on a hot plate and the radio activity is counted in Microbia counter.
Test [2] deals with T1, Muscarinic acetylcholine receptor M4 (Homo sapiens) (UniProt P08173).
T1 sequence (whole entry): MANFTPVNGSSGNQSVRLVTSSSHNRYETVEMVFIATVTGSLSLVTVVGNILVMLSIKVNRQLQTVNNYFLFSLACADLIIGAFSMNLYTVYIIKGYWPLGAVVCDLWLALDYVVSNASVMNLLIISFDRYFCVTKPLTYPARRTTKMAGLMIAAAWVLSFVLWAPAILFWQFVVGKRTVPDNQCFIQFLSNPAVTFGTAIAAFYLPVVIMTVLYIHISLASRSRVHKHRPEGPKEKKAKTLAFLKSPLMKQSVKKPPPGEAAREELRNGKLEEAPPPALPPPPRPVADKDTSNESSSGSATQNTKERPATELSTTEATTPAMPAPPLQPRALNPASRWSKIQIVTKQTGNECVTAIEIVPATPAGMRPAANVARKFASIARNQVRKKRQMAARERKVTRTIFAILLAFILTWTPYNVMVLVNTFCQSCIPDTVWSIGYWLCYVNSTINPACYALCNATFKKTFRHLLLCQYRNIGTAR
Description: PDSP Primary Binding target: CHRM4 - Compounds are tested at 10 uM concentration, plate are incubated at room temperature in the dark for 90 minutes. Reaction are stopped by vacuum filtration onto 0.3% polyethyleneimine soaked filter mats using Filtermate harvester. Scintilation cocktail is then melted onto microwave-dried filters on a hot plate and the radio activity is counted in Microbia counter.

Test [3] has as its target D(3) dopamine receptor (Homo sapiens) (UniProt P35462).
Description: PDSP Primary Binding target: DRD3 - Compounds are tested at 10 uM concentration, plate are incubated at room temperature in the dark for 90 minutes. Reaction are stopped by vacuum filtration onto 0.3% polyethyleneimine soaked filter mats using Filtermate harvester. Scintilation cocktail is then melted onto microwave-dried filters on a hot plate and the radio activity is counted in Microbia counter.
For test [4], the target named is T2, D(4) dopamine receptor (Homo sapiens) (UniProt P21917).
T2 sequence (whole entry): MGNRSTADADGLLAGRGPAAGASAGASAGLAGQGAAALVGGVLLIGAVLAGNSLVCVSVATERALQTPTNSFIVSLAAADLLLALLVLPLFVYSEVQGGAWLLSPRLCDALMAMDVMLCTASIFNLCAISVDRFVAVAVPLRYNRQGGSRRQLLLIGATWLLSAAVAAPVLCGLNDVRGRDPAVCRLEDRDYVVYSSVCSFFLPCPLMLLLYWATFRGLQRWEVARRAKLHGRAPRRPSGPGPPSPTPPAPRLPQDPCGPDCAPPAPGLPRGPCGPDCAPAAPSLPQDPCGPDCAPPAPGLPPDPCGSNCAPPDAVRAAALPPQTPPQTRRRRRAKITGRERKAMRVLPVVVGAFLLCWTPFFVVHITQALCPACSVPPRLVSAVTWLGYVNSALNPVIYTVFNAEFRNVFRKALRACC
Description: PDSP Primary Binding target: DRD4 - Compounds are tested at 10 uM concentration, plate are incubated at room temperature in the dark for 90 minutes. Reaction are stopped by vacuum filtration onto 0.3% polyethyleneimine soaked filter mats using Filtermate harvester. Scintilation cocktail is then melted onto microwave-dried filters on a hot plate and the radio activity is counted in Microbia counter.

The target in test [5] is D(1B) dopamine receptor (Homo sapiens) (UniProt P21918).
Description: PDSP Primary Binding target: DRD5 - Compounds are tested at 10 uM concentration, plate are incubated at room temperature in the dark for 90 minutes. Reaction are stopped by vacuum filtration onto 0.3% polyethyleneimine soaked filter mats using Filtermate harvester. Scintilation cocktail is then melted onto microwave-dried filters on a hot plate and the radio activity is counted in Microbia counter.
Test [6] addresses Histamine H3 receptor (Homo sapiens) (UniProt Q9Y5N1).
Description: PDSP Primary Binding target: HRH3 - Compounds are tested at 10 uM concentration, plate are incubated at room temperature in the dark for 90 minutes. Reaction are stopped by vacuum filtration onto 0.3% polyethyleneimine soaked filter mats using Filtermate harvester. Scintilation cocktail is then melted onto microwave-dried filters on a hot plate and the radio activity is counted in Microbia counter.
Test [7] has as its target T3, 5-hydroxytryptamine receptor 1A (Homo sapiens) (UniProt P08908).
T3 sequence (whole entry): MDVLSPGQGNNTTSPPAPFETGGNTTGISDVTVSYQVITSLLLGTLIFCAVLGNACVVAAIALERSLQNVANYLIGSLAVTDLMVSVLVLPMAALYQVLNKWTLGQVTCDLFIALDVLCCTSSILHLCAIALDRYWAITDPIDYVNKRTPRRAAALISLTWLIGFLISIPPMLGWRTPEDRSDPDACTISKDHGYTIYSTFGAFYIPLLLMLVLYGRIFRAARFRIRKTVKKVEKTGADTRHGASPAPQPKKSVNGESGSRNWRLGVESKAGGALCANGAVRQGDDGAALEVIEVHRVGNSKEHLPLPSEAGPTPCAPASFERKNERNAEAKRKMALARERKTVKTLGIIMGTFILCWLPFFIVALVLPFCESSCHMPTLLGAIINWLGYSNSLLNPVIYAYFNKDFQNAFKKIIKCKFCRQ
Description: PDSP Primary Binding target: HTR1A - Compounds are tested at 10 uM concentration, plate are incubated at room temperature in the dark for 90 minutes. Reaction are stopped by vacuum filtration onto 0.3% polyethyleneimine soaked filter mats using Filtermate harvester. Scintilation cocktail is then melted onto microwave-dried filters on a hot plate and the radio activity is counted in Microbia counter.

The target of test [8] is 5-hydroxytryptamine receptor 1B (Homo sapiens) (UniProt P28222).
Description: PDSP Primary Binding target: HTR1B - Compounds are tested at 10 uM concentration, plate are incubated at room temperature in the dark for 90 minutes. Reaction are stopped by vacuum filtration onto 0.3% polyethyleneimine soaked filter mats using Filtermate harvester. Scintilation cocktail is then melted onto microwave-dried filters on a hot plate and the radio activity is counted in Microbia counter.
The target of test [9] is 5-hydroxytryptamine receptor 2A (Homo sapiens) (UniProt P28223).
Description: PDSP Primary Binding target: HTR2A - Compounds are tested at 10 uM concentration, plate are incubated at room temperature in the dark for 90 minutes. Reaction are stopped by vacuum filtration onto 0.3% polyethyleneimine soaked filter mats using Filtermate harvester. Scintilation cocktail is then melted onto microwave-dried filters on a hot plate and the radio activity is counted in Microbia counter.
In test [10] the target is Kappa-type opioid receptor (Homo sapiens) (UniProt P41145).
Description: PDSP Primary Binding target: OPRK1 - Compounds are tested at 10 uM concentration, plate are incubated at room temperature in the dark for 90 minutes. Reaction are stopped by vacuum filtration onto 0.3% polyethyleneimine soaked filter mats using Filtermate harvester. Scintilation cocktail is then melted onto microwave-dried filters on a hot plate and the radio activity is counted in Microbia counter.
Test [11] deals with T4, Alpha-1B adrenergic receptor (Homo sapiens) (UniProt P35368).
T4 sequence (whole entry): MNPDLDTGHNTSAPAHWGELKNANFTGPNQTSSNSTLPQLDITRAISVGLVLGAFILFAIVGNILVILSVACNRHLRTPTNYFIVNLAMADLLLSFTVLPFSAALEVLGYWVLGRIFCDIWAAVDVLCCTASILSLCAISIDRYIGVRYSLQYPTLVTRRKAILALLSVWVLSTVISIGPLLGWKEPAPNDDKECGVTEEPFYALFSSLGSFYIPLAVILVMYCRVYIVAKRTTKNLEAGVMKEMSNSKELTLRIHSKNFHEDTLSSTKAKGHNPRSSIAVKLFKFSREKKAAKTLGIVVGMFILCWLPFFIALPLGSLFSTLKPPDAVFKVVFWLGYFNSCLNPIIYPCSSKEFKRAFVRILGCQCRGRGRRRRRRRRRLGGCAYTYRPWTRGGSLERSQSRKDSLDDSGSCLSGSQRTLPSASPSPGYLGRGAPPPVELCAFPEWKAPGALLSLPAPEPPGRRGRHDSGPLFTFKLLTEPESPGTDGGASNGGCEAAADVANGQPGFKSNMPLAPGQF
Description: PDSP Primary Binding target: ADRA1B - Compounds are tested at 10 uM concentration, plate are incubated at room temperature in the dark for 90 minutes. Reaction are stopped by vacuum filtration onto 0.3% polyethyleneimine soaked filter mats using Filtermate harvester. Scintilation cocktail is then melted onto microwave-dried filters on a hot plate and the radio activity is counted in Microbia counter.

Test [12] deals with T5, Alpha-1D adrenergic receptor (Homo sapiens) (UniProt P25100).
T5 sequence (whole entry): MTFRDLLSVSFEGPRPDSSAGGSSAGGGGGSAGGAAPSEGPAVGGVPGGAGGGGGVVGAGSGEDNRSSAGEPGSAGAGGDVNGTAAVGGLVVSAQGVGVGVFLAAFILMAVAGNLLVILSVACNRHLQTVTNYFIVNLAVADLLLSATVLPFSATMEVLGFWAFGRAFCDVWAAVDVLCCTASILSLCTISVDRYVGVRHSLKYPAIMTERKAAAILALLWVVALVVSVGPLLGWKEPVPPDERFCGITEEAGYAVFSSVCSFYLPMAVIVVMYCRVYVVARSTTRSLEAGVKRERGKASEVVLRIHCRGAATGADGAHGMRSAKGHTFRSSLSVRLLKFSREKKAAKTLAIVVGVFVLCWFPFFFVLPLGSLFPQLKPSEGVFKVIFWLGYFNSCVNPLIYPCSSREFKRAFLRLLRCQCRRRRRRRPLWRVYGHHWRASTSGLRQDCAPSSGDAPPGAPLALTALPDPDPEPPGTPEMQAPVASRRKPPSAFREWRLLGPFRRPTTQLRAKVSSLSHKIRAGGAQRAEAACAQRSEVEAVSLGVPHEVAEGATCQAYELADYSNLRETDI
Description: PDSP Primary Binding target: ADRA1D - Compounds are tested at 10 uM concentration, plate are incubated at room temperature in the dark for 90 minutes. Reaction are stopped by vacuum filtration onto 0.3% polyethyleneimine soaked filter mats using Filtermate harvester. Scintilation cocktail is then melted onto microwave-dried filters on a hot plate and the radio activity is counted in Microbia counter.

Chain of D(1B) dopamine receptor (Homo sapiens) (P21918 whole entry): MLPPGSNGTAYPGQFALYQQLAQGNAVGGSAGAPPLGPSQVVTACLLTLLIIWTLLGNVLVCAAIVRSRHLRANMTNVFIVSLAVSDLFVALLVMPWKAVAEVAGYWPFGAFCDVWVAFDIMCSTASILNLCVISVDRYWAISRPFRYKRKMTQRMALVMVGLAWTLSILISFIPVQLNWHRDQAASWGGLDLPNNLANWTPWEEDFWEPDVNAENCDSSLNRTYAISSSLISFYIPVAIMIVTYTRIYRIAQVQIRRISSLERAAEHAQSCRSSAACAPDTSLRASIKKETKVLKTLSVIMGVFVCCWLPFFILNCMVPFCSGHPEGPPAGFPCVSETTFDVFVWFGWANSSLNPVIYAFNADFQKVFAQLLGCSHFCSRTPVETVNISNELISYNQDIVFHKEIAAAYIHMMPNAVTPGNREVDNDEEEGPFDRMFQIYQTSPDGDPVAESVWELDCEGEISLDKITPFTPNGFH
Chain of D(3) dopamine receptor (Homo sapiens) (P35462 whole entry): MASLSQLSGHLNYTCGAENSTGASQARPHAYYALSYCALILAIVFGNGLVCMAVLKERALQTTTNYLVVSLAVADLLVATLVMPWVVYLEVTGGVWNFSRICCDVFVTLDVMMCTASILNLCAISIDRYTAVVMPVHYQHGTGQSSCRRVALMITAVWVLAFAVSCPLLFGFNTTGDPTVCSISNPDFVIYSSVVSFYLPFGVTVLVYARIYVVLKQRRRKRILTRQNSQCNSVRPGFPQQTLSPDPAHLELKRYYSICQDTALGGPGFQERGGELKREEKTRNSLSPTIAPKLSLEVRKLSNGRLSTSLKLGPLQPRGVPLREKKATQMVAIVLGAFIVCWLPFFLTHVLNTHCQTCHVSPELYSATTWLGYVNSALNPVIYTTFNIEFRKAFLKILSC
Chain of 5-hydroxytryptamine receptor 2A (Homo sapiens) (P28223 whole entry): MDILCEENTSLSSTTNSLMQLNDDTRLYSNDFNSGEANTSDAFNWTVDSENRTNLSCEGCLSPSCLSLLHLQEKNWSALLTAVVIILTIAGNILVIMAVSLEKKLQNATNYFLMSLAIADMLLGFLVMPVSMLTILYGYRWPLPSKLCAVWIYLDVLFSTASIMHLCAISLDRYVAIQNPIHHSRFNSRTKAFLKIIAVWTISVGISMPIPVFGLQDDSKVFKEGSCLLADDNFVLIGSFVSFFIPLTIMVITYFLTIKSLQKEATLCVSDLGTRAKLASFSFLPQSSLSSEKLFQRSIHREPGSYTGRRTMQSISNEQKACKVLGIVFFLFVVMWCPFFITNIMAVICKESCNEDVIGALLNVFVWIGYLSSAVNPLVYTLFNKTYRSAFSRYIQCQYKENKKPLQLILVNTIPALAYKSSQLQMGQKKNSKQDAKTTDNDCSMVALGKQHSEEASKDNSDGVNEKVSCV
Chain of Histamine H3 receptor (Homo sapiens) (Q9Y5N1 whole entry): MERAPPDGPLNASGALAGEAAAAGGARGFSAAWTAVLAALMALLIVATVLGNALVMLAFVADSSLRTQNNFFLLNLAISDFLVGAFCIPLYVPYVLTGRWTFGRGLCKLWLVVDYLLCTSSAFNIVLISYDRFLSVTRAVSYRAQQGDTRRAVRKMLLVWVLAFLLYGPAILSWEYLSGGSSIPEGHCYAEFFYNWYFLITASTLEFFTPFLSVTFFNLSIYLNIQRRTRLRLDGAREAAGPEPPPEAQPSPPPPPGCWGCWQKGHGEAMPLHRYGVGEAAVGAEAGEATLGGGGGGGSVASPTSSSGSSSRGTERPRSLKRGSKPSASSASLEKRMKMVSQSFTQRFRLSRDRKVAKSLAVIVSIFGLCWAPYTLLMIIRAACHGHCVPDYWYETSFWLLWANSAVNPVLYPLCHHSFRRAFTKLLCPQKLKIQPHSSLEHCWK
Chain of Beta-2 adrenergic receptor (Homo sapiens) (P07550 whole entry, looked up): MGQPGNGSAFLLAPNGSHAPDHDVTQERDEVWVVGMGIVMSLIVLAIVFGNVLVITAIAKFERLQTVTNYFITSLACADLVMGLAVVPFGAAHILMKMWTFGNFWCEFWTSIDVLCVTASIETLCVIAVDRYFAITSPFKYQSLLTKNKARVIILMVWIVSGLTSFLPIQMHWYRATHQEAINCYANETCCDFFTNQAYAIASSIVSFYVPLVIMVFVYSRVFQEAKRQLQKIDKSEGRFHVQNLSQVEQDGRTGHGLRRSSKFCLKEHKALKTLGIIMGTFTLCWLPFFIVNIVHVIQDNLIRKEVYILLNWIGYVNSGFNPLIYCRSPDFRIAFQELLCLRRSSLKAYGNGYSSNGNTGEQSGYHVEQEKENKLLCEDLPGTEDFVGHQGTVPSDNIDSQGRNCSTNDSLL
Chain of Kappa-type opioid receptor (Homo sapiens) (P41145 whole entry): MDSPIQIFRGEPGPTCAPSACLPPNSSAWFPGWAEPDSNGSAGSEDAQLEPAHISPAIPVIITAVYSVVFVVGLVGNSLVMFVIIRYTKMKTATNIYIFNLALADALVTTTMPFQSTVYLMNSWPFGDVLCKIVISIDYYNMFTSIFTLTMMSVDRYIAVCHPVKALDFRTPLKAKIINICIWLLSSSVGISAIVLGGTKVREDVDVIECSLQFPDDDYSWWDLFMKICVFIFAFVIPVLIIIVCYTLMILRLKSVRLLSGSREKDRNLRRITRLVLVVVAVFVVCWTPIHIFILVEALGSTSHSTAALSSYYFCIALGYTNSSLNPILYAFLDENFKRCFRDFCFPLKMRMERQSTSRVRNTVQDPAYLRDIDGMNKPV
Chain of 5-hydroxytryptamine receptor 1B (Homo sapiens) (P28222 whole entry): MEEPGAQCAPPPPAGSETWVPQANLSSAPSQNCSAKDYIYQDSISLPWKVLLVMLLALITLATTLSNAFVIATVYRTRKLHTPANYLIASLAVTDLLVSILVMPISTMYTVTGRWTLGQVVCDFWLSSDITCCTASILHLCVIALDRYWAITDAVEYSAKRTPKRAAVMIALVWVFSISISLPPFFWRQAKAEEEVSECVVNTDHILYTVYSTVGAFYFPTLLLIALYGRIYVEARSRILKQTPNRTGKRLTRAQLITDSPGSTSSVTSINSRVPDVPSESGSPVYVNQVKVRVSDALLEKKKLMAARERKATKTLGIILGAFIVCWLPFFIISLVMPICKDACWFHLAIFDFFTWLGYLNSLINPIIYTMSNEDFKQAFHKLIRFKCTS

As usually defined, the inhibition is the relative decrease from the control value, in per cent. Consider `Cc1cccc(NC(=O)N[C@@H]2N=C(c3ccccc3)c3ccccc3N(C)C2=O)c1`, for which the inhibition is -4.38% in test [1]; -5.23% in test [2]; 0.6% in test [3]; 14.6% in test [4]; 0.34% in test [5]; -5.59% in [6]. Further, the inhibition is -9.64% in test [7], 16.2% in [8], 53.4% in test [9] and 22.5% in test [10].

As to `O=c1ccn([C@@H]2O[C@H](COP(=O)(O)OP(=O)(O)O)[C@@H](O)[C@H]2O)c(=O)[nH]1`, the inhibition in test [11] is -6.51%; in [1], -0.48%; in test [2], 9.94%; in [3], 7.98%; in [5], -4.32%; in test [6], 7.28%. In addition, the inhibition in [7] was 5.47%; in [8], 1.75%; in [9], 10.7%; in test [10], 6.04%.

For the compound `CC(C)NCC(O)COc1ccc(CCOCC2CC2)cc1` (stereo not drawn), the inhibition was 19.5% in test [11]; 5.75% in test [12]; 22.5% in [2]; 5.81% in test [3]; 6.71% in test [5]; 28.3% in test [6]. Also, the inhibition in test [7] was -1.07%; in test [8], 10.4%; in [9] it was 8.23%; in test [10], 20.5%.

`C[C@H](CO)Nc1nc(SCc2cccc(Cl)c2F)nc2[nH]c(=O)sc12`: the inhibition in test [11] was 3.03%; in [1] it was 8.37%; in [2], -0.1%; in [3], 13.7%; in test [5], -1.9%; in [6], 5.16%. The inhibition was 6.98% in test [7], 7.55% in [9] and 11% in test [10].

With `CNC[C@H](O)c1cccc(O)c1`, the inhibition was 10.8% in [11]; 26.6% in [12]; -1.97% in test [1]; 6.21% in test [2]; 12.7% in [3]; 13.1% in [6]. The inhibition in [7] is 1.52%; in test [8] it was 15.9%; in test [9], 25.3%.

For the compound `N#Cc1cccc(C(=O)Nc2cc(-c3ccccc3)nn2-c2ccccc2)c1`, the inhibition is -3.29% in test [11]; 1.08% in [1]; -7.29% in test [2]; 30.4% in test [3]; 4.16% in [4]; 0.95% in test [5]. Besides, the inhibition in test [6] was 7.12%; in test [7], 14.8%; in test [8], 23.3%; in test [9], 6.53%; in test [10], 16.2%.

As for `CC(C)NCC(O)COc1cccc2ccccc12` (stereo not drawn), the inhibition is 12.7% in [12]; -3.37% in test [2]; 23.3% in test [3]; 13.2% in test [4]; 10.2% in test [5]; 5.07% in test [6]. The inhibition in [7] was 77.5%; in test [8] it was 9.59%; in test [10] it was 16.1%.

Consider `Cc1cc(C(=O)N2Cc3cnn(C)c3Nc3ccccc32)ccc1CNC(=O)N1CCC[C@H]1C(=S)N1CCCN(C)CC1`, for which the inhibition was -2.71% in test [11]; -1.47% in [1]; 63% in test [2]; 87.3% in test [3]; 11% in [5]; -3.18% in test [7]. For the same compound, the inhibition was 20.7% in test [8], 9.68% in test [9] and 61.7% in [10].

In the case of `C[C@H](NC[C@H](O)CP(=O)(O)CC1CCCCC1)c1ccc(Cl)c(Cl)c1`, the inhibition in [11] is 6.11%; in test [12], 8.86%; in test [1] it was -1.65%; in test [2], -3.27%; in test [3], 19.5%; in test [4] it was 13.4%. For the same compound, the inhibition in test [6] is 17.5%; in [7] it was -7.25%; in [9], -0.59%; in test [10], 52.3%.

Regarding `CCOC(=O)c1c(C)[nH]c2ccc3c(c12)CN1CCc2cc(OC)ccc2C1O3` (stereo not drawn), the inhibition was 27.5% in test [11]; 36.5% in test [12]; 23.2% in [1]; 92.3% in [2]; 44.2% in [3]; -5.53% in test [4]. The inhibition was -2.82% in test [6], 54% in test [8], 28.7% in test [9] and 57.4% in test [10].

As to `Nc1nc2c(c(N3CCNCC3)n1)CCC1=C2[C@@H]2CCCC[C@@H]2O1`, the inhibition in test [11] was -8.32%; in [2], -0.51%; in [4] it was 8.96%; in test [5], -1.02%; in [6], 34.4%; in test [7], 49.9%. In addition, in test [9], the inhibition is 50.6%.

With `COc1ccc(S(=O)(=O)c2cc(OC)ccc2S(=O)(=O)c2ccc([C@H](C)NS(C)(=O)=O)cc2)cc1`, the inhibition in test [11] is -4.35%; in test [1] it was -1.6%; in test [2], -3.37%; in [3], 73.4%; in test [4], 58.7%; in test [5], 14.2%. Besides, the inhibition in [8] is -1.73%; in test [9], 31.9%; in [10] it was 2.71%.
